The record followed here is ChEMBL document CHEMBL3600290, “From hybrid compounds to targeted drug delivery in antimalarial therapy” (Bioorg Med Chem, 2015).

Structures are written as SMILES. pIC50: −log10 of the molar value. Converted amounts (≈) assume the structure as drawn. Numbered stars: 1 amine (or outer) side, 2 acyl side, 3 side chain; on linkers, the order of the positions; unused ones are H or OH. Square brackets hold non-standard residues; d marks the D form. Peptide text beside a SMILES is read from it. * marks the point of attachment. hPhe = N[C@@H](CCc1ccccc1)C(=O)O; Morpholide = C1CN(*)CCO1; CO = O=C([*:1])[*:2]

The subject of series [1] is Plasmodium falciparum. Kind of series: Antimalarial activity against Plasmodium falciparum W2 assessed as inhibition of parasite growth. It counts as functional, organism-based.
The subject of series [2] is Plasmodium falciparum. The series can be described thus: Antimalarial activity against Plasmodium falciparum FcB1. Type of series: functional, organism-based.
The subject of series [3] is Plasmodium falciparum. The series can be described thus: Antimalarial activity against Plasmodium falciparum F32. It counts as functional, organism-based.
The test system of series [4] is Plasmodium falciparum. The series can be described thus: Antimalarial activity against Plasmodium falciparum infected in mouse assessed as cure rate at 26 to 32 mg/kg/day administered po or ip. It counts as functional.
The subject of series [5] is Plasmodium falciparum. The series can be described thus: Antimalarial activity against Plasmodium falciparum 3D7 assessed as inhibition of parasite growth. Type of series: functional, organism-based.
Series [6] deals with Plasmodium falciparum. The series can be described thus: Antimalarial activity against Plasmodium falciparum Dd2 assessed as inhibition of parasite growth. Type of series: functional, organism-based.
Series [7] in a line: Inhibition of Plasmodium falciparum FP2.
For series [8], the system named is Plasmodium falciparum. The series can be described thus: Antimalarial activity against chloroquine-resistant Plasmodium falciparum K1 assessed as inhibition of parasite growth. Type of series: functional, organism-based.
For another series, the system named is Plasmodium berghei. Kind of series: Antimalarial activity against liver stage of Plasmodium berghei. Type of series: functional, organism-based.
For series [9], the system named is Plasmodium falciparum. The series can be described thus: Antimalarial activity against Plasmodium falciparum D10 assessed as inhibition of parasite growth. Type of series: functional, organism-based.
For series [10], the system named is Plasmodium falciparum. The series can be described thus: Antimalarial activity against Plasmodium falciparum NF54 assessed as inhibition of parasite growth. Type of series: functional, organism-based.
Series [11] has as its system Plasmodium falciparum. The series can be described thus: Antimalarial activity against Plasmodium falciparum infected in mouse assessed as mouse survival at 3x10 mg/kg/day, po. Type of series: functional.
For series [12], the system named is Plasmodium falciparum. The series can be described thus: Antimalarial activity against Plasmodium falciparum infected in mouse assessed as suppression of parasitemia at 3x10 mg/kg/day, po measured at day 4 post-infection. Type of series: functional.
A short description of series [13]: Inhibition of Plasmodium falciparum DPAP1 after 30 mins.
A short description of series [14]: Inhibition of beta-hematin formation. It counts as physicochemical.
Series [15] has as its system Plasmodium falciparum. The series can be described thus: Antimalarial activity against Plasmodium falciparum D6 assessed as inhibition of parasite growth. It counts as functional, organism-based.

Consider `CC1(C)COC2(CCC(NC3CCC(Nc4ccnc5cc(Cl)ccc45)CC3)CC2)OO1` (stereo not drawn), for which the pIC50 (usually the IC50 on a negative log10 scale, so that one unit is a factor of ten) with Plasmodium falciparum [1] is 7.82; in the series on Plasmodium falciparum [2], 7.62; in the series with Plasmodium falciparum [3], 7.89. Further, the Activity in the series on Plasmodium falciparum [4] is given as 100%.

On to `COc1cc(NC(C)CCCNc2ccnc3cc(Cl)ccc23)c2ncccc2c1` (stereo not drawn), for which the pIC50 in the series with Plasmodium falciparum [5] is 6.19; with Plasmodium falciparum [6], 6.24.

On to `CC(C)CN(NC(=O)C1CCC2(CC1)OOC1(OO2)C2CC3CC(C2)CC1C3)c1nc(C#N)ncc1Br` (stereo not drawn), for which the pIC50 in series [7] was 7.79.

With `CC(C)C[C@H](NC(=O)c1ccc(CO[C@H]2O[C@@H]3O[C@@]4(C)CC[C@H]5[C@H](C)CC[C@@H]([C@H]2C)[C@@]35OO4)cc1)C(=O)N[C@H](/C=C/S(C)(=O)=O)CCc1ccccc1`, the pIC50 in series [7] was 5.46.

Take `CC(C)(O)C[C@H](NC(=O)N1CCOCC1)C(=O)N[C@H](/C=C/S(=O)(=O)c1ccccc1)CCc1ccccc1`: the pIC50 in the series on Plasmodium falciparum [1] was 6.74; in [7], 5.99.

For `C[C@@H]1CC[C@H]2[C@@H](C)C(=O)O[C@@H]3O[C@@]4(C)CC[C@@H]1[C@]32OO4` [ARTEMISININ], in the series on Plasmodium falciparum [8], the pIC50 is 7.33.

`COc1cc(NC(C)CCCNC(=O)c2ccc(CO[C@H]3O[C@@H]4O[C@@]5(C)CC[C@H]6[C@H](C)CC[C@@H]([C@H]3C)[C@@]46OO5)cc2)c2ncccc2c1` (stereo partly drawn): the pIC50 in the series with Plasmodium falciparum [1] was 8.29; in the series with Plasmodium berghei, 7.17.

As to `CC(C)C[C@H](NC(=O)N1CCOCC1)C(=O)N[C@H](C=O)CCc1ccccc1` ({Morpholide-CO}-Leu-[hPhe]-aldehyde), the pIC50 in series [7] was 7.79.

For `CC(C)C[C@H](NC(=O)C1CCC(=O)CC1)C(=O)N[C@H](/C=C/S(=O)(=O)c1ccccc1)CCc1ccccc1`, the values for the pIC50 (with Plasmodium falciparum [1]; with Plasmodium falciparum [5]; in series [7]) were 7.58, 6.54 and 7.16, respectively.

On to `Cc1ccc2c(c1)/C(=N/NC(N)=S)C(=O)N2CCNc1ccnc2cc(Cl)ccc12`, for which the figures for the negative logarithm of the IC50 (pIC50) (in the series on Plasmodium falciparum [1]; in series [7]; in the series on Plasmodium falciparum [9]) were 7.29, 4.93 and 7.10, respectively.

Take `C[C@@H]1C(=O)C[C@H]2C[C@@H]1OO[C@@]2(C)/C=C\c1ccc(C(F)(F)F)cc1C(F)(F)F` [ARTEFLENE]: the pIC50 in the series with Plasmodium falciparum [8] is 7.82.

The molecule `O=C(NCCNc1ccnc2cc(Cl)ccc12)N/N=C/c1ccc(O)c(CN2CCN(c3ccnc4cc(Cl)ccc34)CC2)c1O` had a pIC50 in series [7] of 5.50.

Regarding `CCN(CC)CCCC(C)Nc1ccnc2cc(Cl)ccc12` (stereo not drawn) [CHLOROQUINE], the MIC (as a rule, the smallest concentration in the dilution series that meets the test's criterion for growth inhibition) in the series on Plasmodium falciparum [10] is 0.125 µg/mL (≈ 0.391 µM).

For `COc1cc(NC(C)CCCNC2CCC3(CC2)OOC2(OO3)C3CC4CC(C3)CC2C4)c2ncccc2c1` (stereo not drawn), the pIC50 in the series on Plasmodium falciparum [1] is 7.66; in the series on Plasmodium berghei, 6.48.

With `CC(C)C[C@@H](NC(=O)/C=C/c1ccccc1)C(=O)N[C@H](CCc1ccccc1)C(=O)Nc1ccnc2cc(Cl)ccc12`, the pIC50 in series [7] is 4.71.

In the case of `COc1ccc2nccc([C@@H](O)[C@@H]3C[C@@H]4CCN3C[C@@H]4CC(=O)O[C@@H]3O[C@@H]4O[C@@]5(C)CC[C@H]6[C@H](C)CC[C@@H]([C@H]3C)[C@@]46OO5)c2c1`, the pIC50 in the series with Plasmodium falciparum [5] was 8.05; in the series with Plasmodium falciparum [2] it was 8.02.

With `CC(=O)O[C@@]1(C)CC[C@@H]2C[C@@H]1OO[C@]2(/C=C\c1ccc(Cl)cc1)c1ccccc1`, the pIC50 in the series on Plasmodium falciparum [8] is 7.64.

Take `COc1ccc(C[C@H](N)C(=O)N[C@H]2[C@@H](O)[C@H](n3cnc4c(N(C)C)ncnc43)O[C@@H]2CO)cc1` [PUROMYCIN]: the pIC50 in the series on Plasmodium falciparum [1] was 7.38.

As for `CCN(CC)Cc1cc(C2CCC3(CC2)OOC2(OO3)C3CC4CC(C3)CC2C4)ccc1O` (stereo not drawn), the pIC50 with Plasmodium falciparum [1] is 8.29; with Plasmodium falciparum [8], 8.24. In the series with Plasmodium falciparum [11], the Survival was above 20 days. Besides, the “inhibition (INH)” value in the series on Plasmodium falciparum [12] was 99.8%.

For the molecule `Clc1ccc2c(NCCNC(CCN3CCCCC3)c3ccccc3)ccnc2c1` (stereo not drawn), in the series with Plasmodium falciparum [10], the pIC50 was 8.15.

`C[C@H]1[C@H](OCCNCCNc2ccnc3cc(Cl)ccc23)O[C@@H]2O[C@@]3(C)CC[C@H]4[C@H](C)CC[C@@H]1[C@@]24OO3`: the figures for the pIC50 with Plasmodium falciparum [5], in the series with Plasmodium falciparum [9] and with Plasmodium falciparum [6] were 7.69, 7.67 and 7.59, respectively.

In the case of `CC(C)C[C@H](NC(=O)C1CCC2(CC1)OOC1(OO2)C2CC3CC(C2)CC1C3)C(=O)N[C@H](/C=C/S(=O)(=O)c1ccccc1)CCc1ccccc1` (stereo partly drawn), the pIC50 in the series on Plasmodium falciparum [1] is 7.73; with Plasmodium falciparum [5], 7.55; in [7], 5.74.

For `CC(C)C[C@H](NC(=O)N1CCOCC1)C(=O)N[C@@H](CCc1ccccc1)[C@@H]1OOC2(O1)C1CC3CC(C1)CC2C3` (stereo partly drawn), the results for the pIC50 (in the series on Plasmodium falciparum [5]; in series [7]) were 7.45 and 6.29, respectively.

As for `CC(C)(C[C@H](NC(=O)N1CCOCC1)C(=O)N[C@H](/C=C/S(=O)(=O)c1ccccc1)CCc1ccccc1)OC(=O)OCC[C@@]1(CCC(=O)NCCCN2CCCC2=O)OOC2(O1)C1CC3CC(C1)CC2C3` (stereo partly drawn), the values for the pIC50 (in the series with Plasmodium falciparum [1]; in series [7]) were 6.22 and 4.30, respectively.

As for `CCCCC(C(=O)COc1c(F)c(F)cc(F)c1F)n1cc([C@@](C)(NC(=O)OCC[C@@]2(CCC(=O)NCCCN3CCCC3=O)OOC3(O2)C2CC4CC(C2)CC3C4)C2CCCC2)nn1` (stereo partly drawn), the pIC50 was 8.40 in the series with Plasmodium falciparum [9] and 5.00 in series [13].

As for `COc1ccc2nc3cc(Cl)ccc3c(Nc3cccc(Nc4ccnc5cc(Cl)ccc45)c3)c2c1`, the MIC in the series with Plasmodium falciparum [10] was determined as 0.25 µg/mL (≈ 0.489 µM).

`CCCCC(C(=O)COc1c(F)c(F)cc(F)c1F)n1cc([C@@](C)(N)C2CCCC2)nn1` (stereo partly drawn): the values for the pIC50 (with Plasmodium falciparum [9]; in series [13]) were 8.28 and 7.15, respectively.

Regarding `C[C@@H]1CC[C@H]2C(CN3CCCCC3[C@H](O)c3cc(C(F)(F)F)nc4c(C(F)(F)F)cccc34)=C(C(F)(F)F)O[C@@H]3O[C@@]4(C)CC[C@@H]1[C@]32OO4` (stereo partly drawn), the pIC50 with Plasmodium falciparum [2] is 7.76; with Plasmodium falciparum [3] it was 7.80; with Plasmodium falciparum [8], 7.97.

`CC(C)CN(NC(=O)C1CCC(=O)CC1)c1nc(C#N)ncc1Br` showed a pIC50 in [7] of 7.23.

Consider `Clc1ccc2c(NCCCN3CCC(NC(c4ccccn4)c4ccccn4)CC3)ccnc2c1` [DM-1157], for which the pIC50 in series [14] was 5.80; with Plasmodium falciparum [15], 9.05; in the series with Plasmodium falciparum [6], 8.80.

With `COc1ccc(C[C@H](NC(=O)OC2CCCC3(C2)OOC2(O3)C3CC4CC(C3)CC2C4)C(=O)N[C@H]2[C@@H](O)[C@H](n3cnc4c(N(C)C)ncnc43)O[C@@H]2CO)cc1` (stereo partly drawn), the pIC50 with Plasmodium falciparum [1] was 8.00.
